Tested on: lysyl oxidases
Assay: Time-dependency of inhibition (pre-incubation times)
Assay type: biochemical
Design: Fig. 2B activity: scale not given here
Source text: PXS-4787 competes with a model substrate (putrescine) for the LOX binding site (Fig. 2d). The allylamine of PXS-4787 interacts with the co-factor of the enzyme and elicits mechanism-based inhibition (Fig. 2e). Through careful optimization, and in contrast to BAPN, PXS-4787 selectivity targets lysyl oxidases and is neither an inhibitor of, nor a substrate for, related oxidases (Fig. 2f, g and Supplementary Table S1). Furthermore, PXS-4787 was clean when profiled in a broad panel of macromolecular targets using enzyme and radioligand binding assays (LeadProfilingScreen, Eurofins CEREP Panlabs, 68 assays, test concentration 10 µM; Supplementary Data S1).
Data are expressed as mean ± SEM. Subsequent statistical analysis was performed with unpaired two-sided Student’s t tests. *p < 0.05, **p < 0.01, ***p < 0.001and ****p < 0.0001. Source data are provided as a Source Data file.
The measurement of the enzymatic activity of all lysyl oxidase family members was based on the detection of hydrogen peroxide with an Amplex-Red oxidation assay, as previously described; miniaturized in 384 well formats, with the appropriate combination of substrate and assay buffer for each individual enzyme. After a 30 min pre-incubation of the enzyme at 37 °C with the test compound (or with different incubation times for the time-dependency assay), one volume of reaction mixture containing 120 μM Amplex Red (AR) (Life Technologies), 1.5 U/mL horseradish peroxidase (HRP) (Sigma-Aldrich) and the specific substrate was added to each sample. The relative fluorescence units (RFU) were then measured every 2.5 min for 30 min at 37 °C, excitation 565 nm and emission 590, on a BMG Clariostar Microplate Reader. All the substrates were used at concentrations corresponding to their Km towards the corresponding enzyme, or with a range of different concentrations for the substrate competition experiments.

## NC/C=C(\F)CS(=O)(=O)c1ccccc1 [PXS-4787]
  potency versus pre-incubation time: increased potency upon longer pre-incubation times
1.69333e-10, pre-incubation 0 min
  Fig. 2B activity: 106.286
1.69333e-10, pre-incubation 15 min
  Fig. 2B activity: 104.086
1.69333e-10, pre-incubation 30 min
  Fig. 2B activity: 108.652
1.69333e-10, pre-incubation 1 h
  Fig. 2B activity: 105.245
1.69333e-10, pre-incubation 2 h
  Fig. 2B activity: 105.759
1.69333e-10, pre-incubation 4 h
  Fig. 2B activity: 111.637
5.08e-10, pre-incubation 0 min
  Fig. 2B activity: 102.267
5.08e-10, pre-incubation 15 min
  Fig. 2B activity: 101.228
5.08e-10, pre-incubation 30 min
  Fig. 2B activity: 106.873
5.08e-10, pre-incubation 1 h
  Fig. 2B activity: 98.3282
5.08e-10, pre-incubation 2 h
  Fig. 2B activity: 107.568
5.08e-10, pre-incubation 4 h
  Fig. 2B activity: 110.707
1.52e-9, pre-incubation 0 min
  Fig. 2B activity: 101.124
1.52e-9, pre-incubation 15 min
  Fig. 2B activity: 102.218
1.52e-9, pre-incubation 30 min
  Fig. 2B activity: 107.03
1.52e-9, pre-incubation 1 h
  Fig. 2B activity: 103.614
1.52e-9, pre-incubation 2 h
  Fig. 2B activity: 102.685
1.52e-9, pre-incubation 4 h
  Fig. 2B activity: 110.751
4.57e-9, pre-incubation 0 min
  Fig. 2B activity: 99.5583
4.57e-9, pre-incubation 15 min
  Fig. 2B activity: 100.144
4.57e-9, pre-incubation 30 min
  Fig. 2B activity: 103.756
4.57e-9, pre-incubation 1 h
  Fig. 2B activity: 101.013
4.57e-9, pre-incubation 2 h
  Fig. 2B activity: 107.904
4.57e-9, pre-incubation 4 h
  Fig. 2B activity: 105.302
1.37e-8, pre-incubation 0 min
  Fig. 2B activity: 96.8423
1.37e-8, pre-incubation 15 min
  Fig. 2B activity: 98.2429
1.37e-8, pre-incubation 30 min
  Fig. 2B activity: 101.141
1.37e-8, pre-incubation 1 h
  Fig. 2B activity: 101.758
1.37e-8, pre-incubation 2 h
  Fig. 2B activity: 104.569
1.37e-8, pre-incubation 4 h
  Fig. 2B activity: 105.34
4.12e-8, pre-incubation 0 min
  Fig. 2B activity: 98.5025
4.12e-8, pre-incubation 15 min
  Fig. 2B activity: 98.7481
4.12e-8, pre-incubation 30 min
  Fig. 2B activity: 99.9026
4.12e-8, pre-incubation 1 h
  Fig. 2B activity: 99.6216
4.12e-8, pre-incubation 2 h
  Fig. 2B activity: 100.024
4.12e-8, pre-incubation 4 h
  Fig. 2B activity: 98.7222
1.23e-7, pre-incubation 0 min
  Fig. 2B activity: 98.6918
1.23e-7, pre-incubation 15 min
  Fig. 2B activity: 98.1432
1.23e-7, pre-incubation 30 min
  Fig. 2B activity: 101.367
1.23e-7, pre-incubation 1 h
  Fig. 2B activity: 90.8141
1.23e-7, pre-incubation 2 h
  Fig. 2B activity: 90.2595
1.23e-7, pre-incubation 4 h
  Fig. 2B activity: 86.2099
3.7e-7, pre-incubation 0 min
  Fig. 2B activity: 96.5147
3.7e-7, pre-incubation 15 min
  Fig. 2B activity: 94.9326
3.7e-7, pre-incubation 30 min
  Fig. 2B activity: 97.5329
3.7e-7, pre-incubation 1 h
  Fig. 2B activity: 85.2822
3.7e-7, pre-incubation 2 h
  Fig. 2B activity: 74.251
3.7e-7, pre-incubation 4 h
  Fig. 2B activity: 62.6684
1.11e-6, pre-incubation 0 min
  Fig. 2B activity: 94.3157
1.11e-6, pre-incubation 15 min
  Fig. 2B activity: 89.9671
1.11e-6, pre-incubation 30 min
  Fig. 2B activity: 87.3566
1.11e-6, pre-incubation 1 h
  Fig. 2B activity: 64.8977
1.11e-6, pre-incubation 2 h
  Fig. 2B activity: 45.9612
1.11e-6, pre-incubation 4 h
  Fig. 2B activity: 15.2083
3.33e-6, pre-incubation 0 min
  Fig. 2B activity: 92.0439
3.33e-6, pre-incubation 15 min
  Fig. 2B activity: 82.8346
3.33e-6, pre-incubation 30 min
  Fig. 2B activity: 63.1887
3.33e-6, pre-incubation 1 h
  Fig. 2B activity: 32.0154
3.33e-6, pre-incubation 2 h
  Fig. 2B activity: 13.0848
3.33e-6, pre-incubation 4 h
  Fig. 2B activity: 1.062
10 µM, after 2 h
  inhibition of the least sensitive lysyl oxidase: complete inhibition
1e-5, pre-incubation 0 min
  Fig. 2B activity: 71.7944
1e-5, pre-incubation 15 min
  Fig. 2B activity: 51.1738
1e-5, pre-incubation 30 min
  Fig. 2B activity: 24.7148
1e-5, pre-incubation 1 h
  Fig. 2B activity: 3.779
1e-5, pre-incubation 2 h
  Fig. 2B activity: 2.199
1e-5, pre-incubation 4 h
  Fig. 2B activity: 0.1194
3e-5, pre-incubation 0 min
  Fig. 2B activity: 46.8993
3e-5, pre-incubation 15 min
  Fig. 2B activity: 20.2974
3e-5, pre-incubation 30 min
  Fig. 2B activity: 5.217
3e-5, pre-incubation 1 h
  Fig. 2B activity: 1.087
3e-5, pre-incubation 2 h
  Fig. 2B activity: 2.027
3e-5, pre-incubation 4 h
  Fig. 2B activity: -1.502

Source: paper PMC9500072, “Topical application of an irreversible small molecule inhibitor of lysyl oxidases ameliorates skin scarring and fibrosis” (Nature Communications, 2022)
